Literature values in patent US9682924B2, “Crystalline form of VSN16” (CANBEX THERAPEUTICS LIMITED, priority 2013, dated 2017).
Values belong to the compound of their own block, whether it stands above or below them.

Columns and labels:
mesenteric arteries = details: for antagonism of VSN16 vasorelaxation: antagonist against VSN16-induced vasorelaxation, rimonabant and AM 251 at high concentrations
spasticity in CREAE mice = details: without producing significant adverse CNS effects
CB1 receptors = target: T1, CB1 receptors (Rattus norvegicus, UniProt P20272); details: rat cerebellum
T1 construct: from tissue; host or cells: rat cerebellum
T1 sequence (P20272 whole entry): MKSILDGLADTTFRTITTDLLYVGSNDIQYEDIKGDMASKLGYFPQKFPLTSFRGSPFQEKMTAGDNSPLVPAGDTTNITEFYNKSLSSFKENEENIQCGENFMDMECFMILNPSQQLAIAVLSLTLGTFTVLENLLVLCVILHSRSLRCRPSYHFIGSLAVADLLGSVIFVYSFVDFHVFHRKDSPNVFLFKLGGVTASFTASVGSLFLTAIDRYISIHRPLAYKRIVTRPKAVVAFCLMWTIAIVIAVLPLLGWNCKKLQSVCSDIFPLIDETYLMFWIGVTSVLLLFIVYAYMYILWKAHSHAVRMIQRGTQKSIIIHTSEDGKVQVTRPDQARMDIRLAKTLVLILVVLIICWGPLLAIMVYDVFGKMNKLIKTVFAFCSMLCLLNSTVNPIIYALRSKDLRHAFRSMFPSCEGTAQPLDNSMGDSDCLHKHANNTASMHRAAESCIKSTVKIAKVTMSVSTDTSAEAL

SMILES: Cc1c(C(=O)NN2CCCCC2)nn(-c2ccc(Cl)cc2Cl)c1-c1ccc(I)cc1 [AM 251]
- antagonism of VSN16 vasorelaxation (mesenteric arteries): antagonized

SMILES: C=C(C)[C@@H]1CCC(C)=C[C@H]1c1c(OC)cc(C)cc1OC [O-1918]
- antagonism of VSN16 vasorelaxation (mesenteric arteries): antagonized

SMILES: Cc1c(C(=O)NN2CCCCC2)nn(-c2ccc(Cl)cc2Cl)c1-c1ccc(Cl)cc1 [rimonabant]
- antagonism of VSN16 vasorelaxation (mesenteric arteries): antagonized

- effect on [3H]CP55,940 binding to CB1 receptors (CB1 receptors): does not affect
SMILES: CC(CO)NC(=O)c1cccc(/C=C\CCCC(=O)N(C)C)c1 (centres unmarked) [VSN16]
- effect on spasticity (spasticity in CREAE mice): marked effect on spasticity
- relaxation of mesenteric arteries (mesenteric arteries; endothelium-dependent): relaxes mesenteric arteries in an endothelium-dependent manner
- blood pressure (conscious rats): transiently increases blood pressure
- mesenteric vascular conductance (conscious rats): longer-lasting increase in mesenteric vascular conductance
